# Measurements as given in patent US5268308A, “Immunoassay for pyridostigmine” (priority 1989, dated 1993).
# Where “and” joins values, the source holds several entries; their conditions need not be identical. Equal entries are not always repeated. Where two headings read alike, the source gives them in different places.
# Key:
# [1] = Pyridostigmine level in rat sera after intramuscular dose, by RIA; assay type: in vivo; conditions: for concentration at 5 min / concentration at 10 min / concentration at 0.25 h / concentration at 0.5 h / concentration at 1 h / concentration at 2 h / concentration at 3 h / concentration at 4 h: rat, serum, im
# Description: (§1) To further validate the RIA and the antibody specificity of the present invention, additional rat studies were conducted. Male rats were housed two per cage at 23° C. with a twelve hour on-off light cycle. The animals were given food and water ad libitum. After sixty days, food was withheld for twelve hours. Then pyridostigmine was administered (1.0 mg. of pyridostigmine bromide in physiologic saline/Kg) intramuscularly to the rats weighing between 450 and 550 grams.
# (§2) Groups of three animals were sacrificed by using inhalation anesthetic, Fluothane (0.01% thymol, w/w; and 0.00025% ammonia, w/w) Ayerst Laboratories, New York, N.Y. at various times after dosing, namely at 0, 5, 10, 15, 30, 60 minutes and at 2, 3, 4 and 6 hours. Blood was collected via heart puncture, and serum was separated by centrifugation at 2000 xg for 20 minutes. Table 4 gives the pyridostigmine level in the plasma of three male rats for each time interval as determined by the RIA of the present invention.
# [2] = Pyridostigmine in various rat organs after intramuscular dose, by RIA; assay type: in vivo; conditions: 1.0 mg/kg i.m.
# Description: as §1, §2
# The brain, fat, heart, muscle and spleen were also removed from the sacrificed rats. The organs from each time period were pooled and kept frozen at -85° C. until analyzed. In preparing tissue homogenates for analysis, tissue samples were first brought to room temperature. Next the tissue samples were washed with ice-cold saline, blotted dry, weighed and homogenized in an ice-cold solution ([…], 0.5%. Triton X, 150 mM sodium chloride, pH 7.4; 2:1, v/w) with a Biohomogenizer (from Biospect Products Inc., Bartlesville, OK), cooling the tubes with ice as needed. The suspension was centrifuged at 15,000 ×g for 30 minutes at […] The supernatant was collected, and the pellet was mixed once more (1:1, w/v) with the solution, and centrifuged as described earlier. The supernatants for like samples were combined. The RIA of the present invention was then followed to determine the amounts of pyridostigmine in the various rat organs. The results of the RIA are given in.
# [3] = cited from earlier work
# acetylcholinesterase = conditions: cited from earlier work
# patients = conditions: cited from earlier work
# [4] = biological solutions, particularly plasma and blood; cited from earlier work
# central nervous system = conditions: moderate doses; cited from earlier work
compound,measurement,setting,value
CN(C)C(=O)Oc1ccc[n+](C)c1 [Pyridostigmine],"Pyridostigmine in the Rat Sera, Mean ± S.D.","[1]; 0 min, 1.0 mg/kg pyridostigmine bromide i.m., male rats",0 ng/mL
same,"Pyridostigmine in the Rat Sera, individual animals","[1]; 0 min, 1.0 mg/kg pyridostigmine bromide i.m., male rats #1, #2, #3 in order",0 ng/mL
same,"Pyridostigmine in the Rat Sera, individual animals","[1]; 5 min, 1.0 mg/kg i.m., male rats #1, #2 in order, 1 mg/kg",550 ng/mL
same,"Pyridostigmine in the Rat Sera, individual animals","[1]; 10 min, 1.0 mg/kg i.m., male rats #1, #2 in order, 1 mg/kg",470 ng/mL
same,"Pyridostigmine in the Rat Sera, individual animals","[1]; 15 min, 1.0 mg/kg i.m., male rats #1, #2, #3 in order, 1 mg/kg",300 ng/mL
same,"Pyridostigmine in the Rat Sera, individual animals","[1]; 30 min, 1.0 mg/kg i.m., male rats #1, #2, #3 in order, 1 mg/kg",220 ng/mL
same,"Pyridostigmine in the Rat Sera, individual animals","[1]; 60 min, 1.0 mg/kg i.m., male rats #1, #2, #3 in order, 1 mg/kg",110 ng/mL
same,"Pyridostigmine in the Rat Sera, individual animals","[1]; 2 hr, 1.0 mg/kg i.m., male rats #1, #2, #3 in order, 1 mg/kg, 120 min",25 ng/mL and 15 ng/mL
same,"Pyridostigmine in the Rat Sera, individual animals","[1]; 3 hr, 1.0 mg/kg i.m., male rats #1, #2 in order, 1 mg/kg, 180 min",14 ng/mL
same,"Pyridostigmine in the Rat Sera, individual animals","[1]; 4 hr, 1.0 mg/kg i.m., male rats #1, #2, #3 in order, 1 mg/kg, 240 min",5 ng/mL and 6.5 ng/mL
same,concentration at 5 min,"[1]; 1 mg/kg, 5 min, 1.0 mg/kg i.m., male rats #1, #2 in order, read-out: Pyridostigmine in the Rat Sera, individual animals",600 ng/mL
same,concentration at 5 min,"[1]; 1 mg/kg, 5 min, 1.0 mg/kg i.m., male rats, read-out: Pyridostigmine in the Rat Sera, Mean ± S.D.",575 ± 35.4 ng/mL
same,concentration at 10 min,"[1]; 1 mg/kg, 10 min, 1.0 mg/kg i.m., male rats #1, #2 in order, read-out: Pyridostigmine in the Rat Sera, individual animals",450 ng/mL
same,concentration at 10 min,"[1]; 1 mg/kg, 10 min, 1.0 mg/kg i.m., male rats, read-out: Pyridostigmine in the Rat Sera, Mean ± S.D.",460 ± 14.1 ng/mL
same,concentration at 0.25 h,"[1]; 1 mg/kg, 15 min, 1.0 mg/kg i.m., male rats #1, #2, #3 in order, read-out: Pyridostigmine in the Rat Sera, individual animals",400 ng/mL
same,concentration at 0.25 h,"[1]; 1 mg/kg, 15 min, 1.0 mg/kg i.m., male rats, read-out: Pyridostigmine in the Rat Sera, Mean ± S.D.",387 ± 80.8 ng/mL
same,concentration at 0.5 h,"[1]; 1 mg/kg, 30 min, 1.0 mg/kg i.m., male rats #1, #2, #3 in order, read-out: Pyridostigmine in the Rat Sera, individual animals",250 ng/mL
same,concentration at 0.5 h,"[1]; 1 mg/kg, 30 min, 1.0 mg/kg i.m., male rats, read-out: Pyridostigmine in the Rat Sera, Mean ± S.D.",290 ± 96.4 ng/mL
same,concentration at 1 h,"[1]; 1 mg/kg, 60 min, 1.0 mg/kg i.m., male rats #1, #2, #3 in order, read-out: Pyridostigmine in the Rat Sera, individual animals",140 ng/mL
same,concentration at 1 h,"[1]; 1 mg/kg, 60 min, 1.0 mg/kg i.m., male rats, read-out: Pyridostigmine in the Rat Sera, Mean ± S.D.",130 ± 17.3 ng/mL
same,concentration at 2 h,"[1]; 1 mg/kg, 2 hr, 1.0 mg/kg i.m., male rats #1, #2, #3 in order, read-out: Pyridostigmine in the Rat Sera, individual animals",24 ng/mL
same,concentration at 2 h,"[1]; 1 mg/kg, 2 hr, 1.0 mg/kg i.m., male rats, read-out: Pyridostigmine in the Rat Sera, Mean ± S.D.",21 ± 5.51 ng/mL
same,concentration at 3 h,"[1]; 1 mg/kg, 3 hr, 1.0 mg/kg i.m., male rats #1, #2 in order, read-out: Pyridostigmine in the Rat Sera, individual animals",12 ng/mL
same,concentration at 3 h,"[1]; 1 mg/kg, 3 hr, 1.0 mg/kg i.m., male rats, read-out: Pyridostigmine in the Rat Sera, Mean ± S.D.",13 ± 1.41 ng/mL
same,concentration at 4 h,"[1]; 1 mg/kg, 4 hr, 1.0 mg/kg i.m., male rats #1, #2, #3 in order, read-out: Pyridostigmine in the Rat Sera, individual animals",7.5 ng/mL
same,concentration at 4 h,"[1]; 1 mg/kg, 4 hr, 1.0 mg/kg i.m., male rats, read-out: Pyridostigmine in the Rat Sera, Mean ± S.D.",6 ± 1.26 ng/mL
same,Pyridostigmine in rat organs,"[2]; Brain, 1 HR",5.06 ng/mg protein
same,Pyridostigmine in rat organs,"[2]; Brain, 2 HR",4.63 ng/mg protein
same,Pyridostigmine in rat organs,"[2]; Brain, 3 HR",3.92 ng/mg protein
same,Pyridostigmine in rat organs,"[2]; Brain, 4 HR",3.55 ng/mg protein
same,Pyridostigmine in rat organs,"[2]; Brain, 6 HR",2.62 ng/mg protein
same,Pyridostigmine in rat organs,"[2]; Brain, 5 min",3.63 ng/mg protein
same,Pyridostigmine in rat organs,"[2]; Brain, 10 min",7.65 ng/mg protein
same,Pyridostigmine in rat organs,"[2]; Brain, 15 min",6.32 ng/mg protein
same,Pyridostigmine in rat organs,"[2]; Brain, 30 min",6.11 ng/mg protein
same,Pyridostigmine in rat organs,"[2]; Fat, 1 HR",8.69 ng/mg protein
same,Pyridostigmine in rat organs,"[2]; Fat, 2 HR",6.46 ng/mg protein
same,Pyridostigmine in rat organs,"[2]; Fat, 3 HR",5.73 ng/mg protein
same,Pyridostigmine in rat organs,"[2]; Fat, 4 HR",3.26 ng/mg protein
same,Pyridostigmine in rat organs,"[2]; Fat, 6 HR",2.91 ng/mg protein
same,Pyridostigmine in rat organs,"[2]; Fat, 5 min",5.98 ng/mg protein
same,Pyridostigmine in rat organs,"[2]; Fat, 10 min",8.11 ng/mg protein
same,Pyridostigmine in rat organs,"[2]; Fat, 15 min",15.37 ng/mg protein
same,Pyridostigmine in rat organs,"[2]; Fat, 30 min",9.05 ng/mg protein
same,Pyridostigmine in rat organs,"[2]; Heart, 1 HR",78.29 ng/mg protein
same,Pyridostigmine in rat organs,"[2]; Heart, 2 HR",52.4 ng/mg protein
same,Pyridostigmine in rat organs,"[2]; Heart, 3 HR",48.57 ng/mg protein
same,Pyridostigmine in rat organs,"[2]; Heart, 4 HR",23.11 ng/mg protein
same,Pyridostigmine in rat organs,"[2]; Heart, 6 HR",8.52 ng/mg protein
same,Pyridostigmine in rat organs,"[2]; Heart, 5 min",43.78 ng/mg protein
same,Pyridostigmine in rat organs,"[2]; Heart, 10 min",57.5 ng/mg protein
same,Pyridostigmine in rat organs,"[2]; Heart, 15 min",70.4 ng/mg protein
same,Pyridostigmine in rat organs,"[2]; Heart, 30 min",75.96 ng/mg protein
same,Pyridostigmine in rat organs,"[2]; Muscle, 1 HR",9.46 ng/mg protein
same,Pyridostigmine in rat organs,"[2]; Muscle, 2 HR",4.99 ng/mg protein
same,Pyridostigmine in rat organs,"[2]; Muscle, 3 HR",4.8 ng/mg protein
same,Pyridostigmine in rat organs,"[2]; Muscle, 4 HR",3.94 ng/mg protein
same,Pyridostigmine in rat organs,"[2]; Muscle, 6 HR",3.08 ng/mg protein
same,Pyridostigmine in rat organs,"[2]; Muscle, 5 min",9.63 ng/mg protein
same,Pyridostigmine in rat organs,"[2]; Muscle, 10 min",13.57 ng/mg protein
same,Pyridostigmine in rat organs,"[2]; Muscle, 15 min",11.67 ng/mg protein
same,Pyridostigmine in rat organs,"[2]; Muscle, 30 min",10.08 ng/mg protein
same,Pyridostigmine in rat organs,"[2]; Spleen, 1 HR",2.48 ng/mg protein
same,Pyridostigmine in rat organs,"[2]; Spleen, 2 HR",2.40 ng/mg protein
same,Pyridostigmine in rat organs,"[2]; Spleen, 3 HR",2.03 ng/mg protein
same,Pyridostigmine in rat organs,"[2]; Spleen, 4 HR",1.92 ng/mg protein
same,Pyridostigmine in rat organs,"[2]; Spleen, 6 HR",1.86 ng/mg protein
same,Pyridostigmine in rat organs,"[2]; Spleen, 5 min",10.35 ng/mg protein
same,Pyridostigmine in rat organs,"[2]; Spleen, 10 min",6.26 ng/mg protein
same,Pyridostigmine in rat organs,"[2]; Spleen, 15 min",6.15 ng/mg protein
same,Pyridostigmine in rat organs,"[2]; Spleen, 30 min",4.44 ng/mg protein
same,stability,[3]; alkaline solutions,unstable in alkaline solutions
same,solubility,[3]; water and alcohol,freely soluble in water and alcohol
same,cholinesterase inhibition,acetylcholinesterase,reversible cholinesterase inhibitor
same,side effect on intravenous administration,patients; administered intraveneously,thrombophlebitis
same,adverse muscarinic effects,patients; certain patients,"nausea, vomitin , diarrhea, miosis, excessive salivation and sweating, abdomimal cramps, bradycardia, bronchial secretion and bronchospasm"
same,toxicity relative to therapeutic levels,patients; clinical use,toxic at levels very close to those which produce therapeutic results
same,other side effects,"patients; human, in vivo","generalized weakness, muscle cramps, fasciculation, hypotension"
same,effect of substantial over administration,patients; overdose,cholinergic crisis leading to death
same,in vitro hydrolysis,[4],extensive in vitro hydrolysis
same,effect on the central nervous system,central nervous system,usually do not effect the central nervous system
